The text below walks through data of US8501446B2 (Vertex Pharmaceuticals Incorporated, priority 2004, dated 2013).

Format in all cases: biochemical
The target of one assay is Aurora-B (Homo sapiens, UniProt Q96GD4). Nature of the assay: Aurora-B inhibition assay, radioactive assay. To be noted: average Ki if more than one value determined. The protocol:
Compounds were screened for their ability to inhibit JAK3 using a standard radioactive enzyme assay. 1.5 μL/well of a DMSO stock containing serial dilutions of a compound of the present invention (concentrations ranging from 667 μM to 46 nM) was placed in a 96 well polycarbonate plate. 50 μL per well of kinase buffer (100 mM HEPES (pH 7.4), 10 mM MgCl2, 25 mM NaCl, 1 mM DTT, and 0.01% bovine serum albumin (BSA)) containing 2 μM poly(Glu)4Tyr and 10 μM ATP was also added to the plate. To initiate the reaction, 50 μL kinase buffer containing 2 nM JAK3 enzyme was added. Final ATP concentration was 5 μM [γ-^33P] ATP (200 μCi ^33P ATP/μmol ATP (Perkin Elmer, Cambridge, Mass.). After 20 minutes at room temperature (25° C.), the reaction was stopped by adding 50 μL 20% trichloroacetic acid (TCA)/0.4 mM ATP to each well. The entire content of each well was then transferred to a 96 well glass fiber filter plate using a TomTek Cell Harvester. After washing, 60 μL scintillation fluid was added and ^33P incorporation detected using a Perkin Elmer TopCount. After removing mean background values for all of the data points the data was fit using Prism software to obtain a Ki(app). Inhibition of JAK2 was measured as above except that final poly(Glu)4Tyr concentration was 15 μM and final ATP concentration was 12 μM.
Some compounds were screened for their ability to inhibit ROCK using a standard radioactive enzyme assay. Assays were carried out in a solution containing 100 mM HEPES (pH 7.5), 10 mM MgCl2, 25 mM NaCl, 2 mM DTT, and 1.5% DMSO. Final substrate concentrations in the assay were 13 μM [γ-^33P] ATP (25 mCi ^33P ATP/mmol ATP, Perkin Elmer, Cambridge, Mass./Sigma Chemicals, St Louis, Mo.) and 27 μM Myelin Basic Protein (MBP). Final enzyme concentration in the assay was 5 nM ROCK. Assays were carried out at room temperature. 1.5 μl of DMSO stock containing serial dilutions of the compound of the present invention (concentrations ranging from 10 μM to 2.6 nM) was placed in a 96 well plate. 50 μl of Solution 1 (100 mM HEPES (pH 7.5), 10 mM MgCl2, […]) was added to the plate. The reaction was initiated by addition of 50 μl of Solution 2 (100 mM HEPES (pH 7.5), 10 mM MgCl2, 4 mM DTT, […] and 10 nM ROCK). After 2 hours the reaction was quenched with 50 μL of 30% trichloroacetic acid (TCA, Fisher) containing 9 mM ATP. Transfer of 140 μL of the quenched reaction to a glass fiber filter plate (Corning, Cat. No. 3511) was followed by washing 3 times with 5% TCA. 50 μL of Optima Gold scintillation fluid (Perkin Elmer) was added and the plates were counted on a Top Count (Perkin Elmer). After removing mean background values for all of the data points the data was fit using Prism software to obtain a Ki(app).
An assay stock buffer solution was prepared containing all of the reagents listed above with the exception of ATP and the test compound of interest. The assay stock buffer solution (60 μl) was incubated in a 96 well plate with 2 μl of the test compound of interest at final concentrations spanning 0.002 μM to 30 μM at 30° C. for 10 min. Typically, a 12 point titration was conducted by preparing serial dilutions (from 1 mM compound stocks) with DMSO of the test compounds in daughter plates. The reaction was initiated by the addition of 5 μl of ATP (final concentration 200 μM). Rates of reaction were obtained using a Molecular Devices Spectramax plate reader (Sunnyvale, Calif.) over 10 min at 30° C. The Ki values were determined from the rate data as a function of inhibitor concentration using computerized nonlinear regression (Prism 3.0, Graphpad Software, San Diego, Calif.). Aurora-C activity was screened in a similar manner using Aurora-C protein. Aurora-B activity was screened using a radioactive assay, such as described in Examples 1 and 2, but using Aurora-B protein.

For assay [1], the target named is T1, full length Aurora-A (AA 1-403) (Homo sapiens, UniProt O14965).
T1 construct: full length Aurora-A (AA 1-403)
T1 sequence (O14965 1-403): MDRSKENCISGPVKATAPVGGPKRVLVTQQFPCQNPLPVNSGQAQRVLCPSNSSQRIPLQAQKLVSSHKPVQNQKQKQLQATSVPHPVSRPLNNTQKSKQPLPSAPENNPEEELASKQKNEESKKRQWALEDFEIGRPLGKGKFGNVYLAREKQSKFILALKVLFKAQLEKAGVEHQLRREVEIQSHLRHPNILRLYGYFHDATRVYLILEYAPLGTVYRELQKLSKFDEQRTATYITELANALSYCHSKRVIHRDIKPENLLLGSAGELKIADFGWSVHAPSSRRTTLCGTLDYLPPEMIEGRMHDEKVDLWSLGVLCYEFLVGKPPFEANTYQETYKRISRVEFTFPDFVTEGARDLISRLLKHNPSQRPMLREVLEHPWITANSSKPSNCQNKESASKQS
Kind of assay: Aurora-A inhibition assay, standard coupled enzyme system. Conditions: average Ki if more than one value determined.

The target in the next assay is T2, ROCK I (AA 6-553) (Homo sapiens, UniProt Q13464).
T2 construct: ROCK I (AA 6-553)
Kind of assay: ROCK inhibition assay, standard coupled enzyme system ("Enzyme"). Conditions: enzyme-linked assay. The gist of the method:
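ROCK I (AA 6-553) at 45 nM and 30 °C with 45 μM ATP and 200 μM peptide, in 100 mM HEPES pH 7.5, 10 mM MgCl2, 25 mM NaCl, 2 mM DTT, 1.5% DMSO. ADP output read by a PK/LDH coupled system: 2.5 mM PEP, 350 μM NADH, 30 μg/ml PK, 10 μg/ml LDH.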

Sequence of Aurora-B (Q96GD4 whole entry): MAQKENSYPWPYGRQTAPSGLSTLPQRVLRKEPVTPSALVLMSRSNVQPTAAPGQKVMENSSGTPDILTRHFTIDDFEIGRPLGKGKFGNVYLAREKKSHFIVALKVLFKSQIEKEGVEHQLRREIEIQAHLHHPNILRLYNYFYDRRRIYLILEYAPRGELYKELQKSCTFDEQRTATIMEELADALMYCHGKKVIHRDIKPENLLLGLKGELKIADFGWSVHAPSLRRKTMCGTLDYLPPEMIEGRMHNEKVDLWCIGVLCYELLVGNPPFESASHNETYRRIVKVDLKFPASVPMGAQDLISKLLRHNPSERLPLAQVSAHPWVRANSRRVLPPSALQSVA
T2 sequence (Q13464 6-553, species assumed): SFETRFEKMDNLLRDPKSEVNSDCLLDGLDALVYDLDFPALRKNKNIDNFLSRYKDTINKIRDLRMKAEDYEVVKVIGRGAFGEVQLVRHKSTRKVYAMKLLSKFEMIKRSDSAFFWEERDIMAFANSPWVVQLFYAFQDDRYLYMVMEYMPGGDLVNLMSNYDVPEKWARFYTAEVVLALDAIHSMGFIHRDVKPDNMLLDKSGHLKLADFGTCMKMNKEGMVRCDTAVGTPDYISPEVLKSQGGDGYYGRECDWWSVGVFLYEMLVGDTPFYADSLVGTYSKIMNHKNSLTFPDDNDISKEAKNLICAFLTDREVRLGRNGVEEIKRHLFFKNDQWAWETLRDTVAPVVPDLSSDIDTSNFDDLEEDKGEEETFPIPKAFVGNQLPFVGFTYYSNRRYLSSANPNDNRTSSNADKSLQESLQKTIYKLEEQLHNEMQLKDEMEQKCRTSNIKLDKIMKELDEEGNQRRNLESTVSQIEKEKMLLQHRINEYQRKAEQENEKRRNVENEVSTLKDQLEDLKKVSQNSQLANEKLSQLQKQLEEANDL

For orientation: Ki means the dissociation constant of the complex between target and ligand, obtained from inhibition or displacement. In the case of `C[C@H](Nc1ccnc(-c2c[nH]c3ncc(Cl)cc23)n1)C(=O)NCC(F)(F)F` [Compound 413], the Ki on Aurora-B is less than 0.5 µM; in assay [1] it was less than 0.5 µM; on ROCK I (AA 6-553), 0.5 to 5 µM.

As for `COC(=O)COc1cccc([C@H](C)Nc2nc(-c3c[nH]c4ncc(Cl)cc34)ncc2F)c1` [Compound 335], the inhibition constant (Ki) (on Aurora-B; in assay [1]) was less than 0.5 µM each time.

`C[C@H](Nc1cc(N2CCNCC2)nc(-c2c[nH]c3ncc(Cl)cc23)n1)C(=O)NCC(F)(F)F` [Compound 416]: the Ki is 0.5 to 5 µM on Aurora-B, less than 0.5 µM in assay [1] and 0.5 to 5 µM at ROCK I (AA 6-553).

As for `COc1ccccc1OCCNC(=O)[C@H](C)Nc1nc(-c2c[nH]c3ncc(Cl)cc23)ncc1F` [Compound 453], the Ki (at Aurora-B; in assay [1]; on ROCK I (AA 6-553)) was 0.5 to 5 µM throughout.

For the molecule `Fc1cnc(-c2c[nH]c3ncc(Cl)cc23)nc1NC1CCCc2ccccc21` (stereo not shown) [Compound 330], the Ki at Aurora-B was less than 0.5 µM; in assay [1], less than 0.5 µM; at ROCK I (AA 6-553), 0.5 to 5 µM.

Take `C[C@H](Nc1nc(-c2c[nH]c3ncc(Cl)cc23)ncc1F)c1cccc(OC(=O)NO)c1` [Compound 375]: the values for the Ki (on Aurora-B; in assay [1]; on ROCK I (AA 6-553)) were less than 0.5 µM, less than 0.5 µM and 0.5 to 5 µM, respectively.

With `C[C@H](Nc1nc(-c2c[nH]c3ncc(Cl)cc23)ncc1F)C(=O)NCCc1ccccc1` [Compound 433], the Ki (on Aurora-B; in assay [1]; at ROCK I (AA 6-553)) was 0.5 to 5 µM each time.

On to `C[C@H](Nc1nc(-c2c[nH]c3ncc(Cl)cc23)ncc1C(F)(F)F)C(=O)NCC(F)(F)F` [Compound 418], for which the Ki was less than 0.5 µM at Aurora-B, less than 0.5 µM in assay [1] and 0.5 to 5 µM at ROCK I (AA 6-553).

With `Clc1cnc2[nH]cc(-c3cccc(NC4CCCCCC4)n3)c2c1` [Compound 291], the figures for the Ki (at Aurora-B; in assay [1]; on ROCK I (AA 6-553)) were 0.5 to 5 µM, less than 0.5 µM and 0.5 to 5 µM, respectively.

In the case of `C[C@H](Nc1cc(N2CCN(C)CC2)nc(-c2c[nH]c3ncc(Cl)cc23)n1)C(=O)NCC(F)(F)F` [Compound 414], the Ki (on Aurora-B; in assay [1]; on ROCK I (AA 6-553)) was 0.5 to 5 µM each time.

In the case of `CNC(=O)[C@H](COC)Nc1nc(-c2c[nH]c3ncc(Cl)cc23)ncc1F` [Compound 388], the inhibition constant Ki is less than 0.5 µM on Aurora-B, less than 0.5 µM in assay [1] and 0.5 to 5 µM at ROCK I (AA 6-553).

Consider `CN(C)CC[C@H](Nc1nc(-c2c[nH]c3ncc(Cl)cc23)ncc1F)C(=O)N(C)C` [Compound 456], for which the Ki at Aurora-B was 0.5 to 5 µM; in assay [1], less than 0.5 µM; at ROCK I (AA 6-553), 0.5 to 5 µM.

As to `C[C@H](Nc1nc(-c2c[nH]c3ncc(Cl)cc23)ncc1F)C(=O)NCCN1CCCC1` [Compound 436], the Ki at Aurora-B is less than 0.5 µM; in assay [1] it was 0.5 to 5 µM; on ROCK I (AA 6-553) it was 0.5 to 5 µM.

Regarding `C[C@H](Nc1nc(-c2c[nH]c3ncc(Cl)cc23)ncc1N)c1ccc(F)cc1` [Compound 423], the values for the Ki (on Aurora-B; in assay [1]; on ROCK I (AA 6-553)) were less than 0.5 µM, less than 0.5 µM and 0.5 to 5 µM, respectively.

On to `C[C@H](Nc1cc(C(=O)N(C)C)nc(-c2c[nH]c3ncc(Cl)cc23)n1)c1ccc(F)cc1` [Compound 425], for which the Ki on Aurora-B was less than 0.5 µM; in assay [1], less than 0.5 µM; on ROCK I (AA 6-553), 0.5 to 5 µM.

In the case of `C[C@H](Nc1nc(-c2c[nH]c3ncc(Cl)cc23)ncc1F)C(=O)NCC[C@H]1CCCN1C` [Compound 448], the Ki (at Aurora-B; in assay [1]; at ROCK I (AA 6-553)) was 0.5 to 5 µM each time.

For `CNc1nc(-c2c[nH]c3ncc(Cl)cc23)nc(N[C@@H](C)C(=O)NCC(F)(F)F)c1C(C)C` [Compound 432], the Ki (on Aurora-B; in assay [1]; on ROCK I (AA 6-553)) was 0.5 to 5 µM throughout.

For `C[C@H](Nc1nc(-c2c[nH]c3ncc(Cl)cc23)ncc1F)c1cccc(OCCO)c1` [Compound 341], the Ki at Aurora-B is less than 0.5 µM; in assay [1], less than 0.5 µM; at ROCK I (AA 6-553), 0.5 to 5 µM.

Turning to `C[C@H](Nc1nc(-c2c[nH]c3ncc(Cl)cc23)ncc1F)C(=O)NCCNC(=O)OC(C)(C)C` [Compound 426], the Ki is less than 0.5 µM at Aurora-B, less than 0.5 µM in assay [1] and 0.5 to 5 µM on ROCK I (AA 6-553).

Regarding `C#CCNc1nc(-c2c[nH]c3ncc(Cl)cc23)ncc1F` [Compound 382], the Ki was 0.5 to 5 µM at Aurora-B and less than 0.5 µM in assay [1].

`C[C@H](Nc1nc(-c2c[nH]c3ncc(Cl)cc23)ncc1F)C(=O)NCCN1CCOCC1` [Compound 435]: the inhibitory constant (Ki) (on Aurora-B; in assay [1]; at ROCK I (AA 6-553)) was 0.5 to 5 µM each time.

Turning to `C[C@H](Nc1nc(-c2c[nH]c3ncc(Cl)cc23)ncc1F)C(=O)NCCCN1CCCC1=O` [Compound 460], the inhibition constant (Ki) (on Aurora-B; in assay [1]) was 0.5 to 5 µM each time.

In the case of `C[C@H](Nc1nc(-c2c[nH]c3ncc(Cl)cc23)ncc1F)C(=O)NCCc1nc2ccccc2[nH]1` [Compound 459], the Ki (on Aurora-B; in assay [1]) was 0.5 to 5 µM each time.

As to `COc1cccc([C@H](C)Nc2nc(-c3c[nH]c4ncc(Cl)cc34)ncc2F)c1` [Compound 305], the Ki is less than 0.5 µM at Aurora-B, less than 0.5 µM in assay [1] and 0.5 to 5 µM at ROCK I (AA 6-553).

Take `C[C@@H](Nc1nc(-c2c[nH]c3ncc(Cl)cc23)ncc1F)c1ccc([N+](=O)[O-])cc1` [Compound 310]: the inhibition constant (Ki) at Aurora-B was less than 0.5 µM; in assay [1], less than 0.5 µM; on ROCK I (AA 6-553), 0.5 to 5 µM.

As to `C[C@H](Nc1cc(NCCN(C)C)nc(-c2c[nH]c3ncc(Cl)cc23)n1)C(=O)NCC(F)(F)F` [Compound 419], the Ki (on Aurora-B; in assay [1]) was 0.5 to 5 µM each time.

`C[C@H](Nc1nc(-c2c[nH]c3ncc(Cl)cc23)ncc1F)C(=O)NCCc1cn(C)cn1` [Compound 434]: the inhibition constant Ki (on Aurora-B; in assay [1]; on ROCK I (AA 6-553)) was 0.5 to 5 µM throughout.

With `C[C@H](Nc1nc(-c2c[nH]c3ncc(Cl)cc23)ncc1F)C(=O)NCCSCc1c(Cl)cccc1Cl` [Compound 462], the Ki (at Aurora-B; in assay [1]) was 0.5 to 5 µM each time.

Turning to `CCCC[C@H](C)NC(=O)[C@H](C)Nc1nc(-c2c[nH]c3ncc(Cl)cc23)ncc1F` [Compound 463], the Ki at Aurora-B is 0.5 to 5 µM; in assay [1], less than 0.5 µM.

In the case of `C[C@H](Nc1nc(-c2c[nH]c3ncc(Cl)cc23)ncc1F)C(=O)NCCOc1ccccc1` [Compound 457], the Ki (on Aurora-B; in assay [1]) was 0.5 to 5 µM throughout.
